For 1 compound, IC50 results are on record in US20120028968A1 (priority 2009, published 2012).

By IC50 is commonly meant the concentration at which inhibition is half-maximal. Read a high IC50 as lower potency.

In the test the target is α7-subtype of nicotinic receptors (Rattus norvegicus, UniProt Q05941). The test can be described thus: biochemical. In kind it is binding.

Counter-ions that a name gives are not always drawn.

Sequence of α7-subtype of nicotinic receptors (Q05941 23-502): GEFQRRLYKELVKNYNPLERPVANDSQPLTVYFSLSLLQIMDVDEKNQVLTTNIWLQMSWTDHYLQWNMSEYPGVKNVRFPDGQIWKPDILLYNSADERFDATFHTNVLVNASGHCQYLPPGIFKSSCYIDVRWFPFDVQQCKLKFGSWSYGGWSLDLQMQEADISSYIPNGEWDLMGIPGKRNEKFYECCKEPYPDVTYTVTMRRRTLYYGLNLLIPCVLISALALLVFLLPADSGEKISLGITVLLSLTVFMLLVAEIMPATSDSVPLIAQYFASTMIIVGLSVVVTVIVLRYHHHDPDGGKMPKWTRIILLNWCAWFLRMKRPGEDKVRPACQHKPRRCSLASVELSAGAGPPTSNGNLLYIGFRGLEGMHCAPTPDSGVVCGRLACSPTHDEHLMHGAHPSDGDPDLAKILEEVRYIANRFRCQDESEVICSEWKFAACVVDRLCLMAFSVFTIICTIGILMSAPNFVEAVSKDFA

On to `c1ccc2c(c1)oc1c(-c3nnc(N4CCN5CCC4CC5)o3)cccc12` [Compound 1, 4-(5-Dibenzofuran-4-yl-[1,3,4]oxadiazol-2-yl)-1,4-diaza-bicyclo[3.2.2]nonane fumaric acid salt], for which inhibition was half-maximal at 16 nM (IC50).
